The IC50 is the point on the concentration scale where inhibition reaches its midpoint. As a reminder, the Ki is the dissociation constant of the complex between target and ligand, obtained from inhibition or displacement.

Molecules are shown by their SMILES. Read-outs that look alike come from different tables or passages of the source.

Assay [1] has as its target T1, STAT4 SH2 domain (Homo sapiens, UniProt Q14765).
T1 sequence (Q14765 1-748): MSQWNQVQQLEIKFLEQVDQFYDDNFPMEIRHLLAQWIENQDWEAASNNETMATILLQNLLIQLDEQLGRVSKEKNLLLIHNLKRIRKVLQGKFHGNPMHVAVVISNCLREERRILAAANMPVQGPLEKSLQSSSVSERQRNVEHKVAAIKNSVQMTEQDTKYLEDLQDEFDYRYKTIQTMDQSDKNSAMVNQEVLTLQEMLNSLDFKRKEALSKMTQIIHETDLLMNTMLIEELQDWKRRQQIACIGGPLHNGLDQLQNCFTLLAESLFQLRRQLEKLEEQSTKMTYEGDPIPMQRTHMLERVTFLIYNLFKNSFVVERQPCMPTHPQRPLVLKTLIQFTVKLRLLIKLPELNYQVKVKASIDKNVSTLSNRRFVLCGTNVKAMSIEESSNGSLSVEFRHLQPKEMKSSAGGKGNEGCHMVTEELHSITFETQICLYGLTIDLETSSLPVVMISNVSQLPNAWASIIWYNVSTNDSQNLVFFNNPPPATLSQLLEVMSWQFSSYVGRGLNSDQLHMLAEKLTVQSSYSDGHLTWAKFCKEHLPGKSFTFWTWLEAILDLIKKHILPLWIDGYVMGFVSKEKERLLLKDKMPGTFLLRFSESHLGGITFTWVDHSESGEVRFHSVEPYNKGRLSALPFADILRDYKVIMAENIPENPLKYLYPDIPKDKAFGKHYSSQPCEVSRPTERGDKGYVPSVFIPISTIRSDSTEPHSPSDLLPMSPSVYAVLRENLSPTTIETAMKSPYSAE
Kind of assay: Competitive fluorescence polarization (FP) assay, STAT4. The class given is binding. The following applies: for IC50: 28 nM STAT4, 10 nM tracer peptide; for Ki: Ki calculated from IC50, mean ± SD, n = 3. On the procedure: (§1) Fluorescence polarization assays
Competitive fluorescence polarization assays were carried as previously described.[1] Proteins […]
fluorescent-labeled peptides were used as tracers: 5-carboxyfluorescein-GpYLPQNID-OH for STAT4; 5-carboxyfluorescein-GpYDKPHVL for STAT1; 5-carboxyfluorescein-GpYLPQTV-NH2 for STAT3; 5-carboxyfluorescein-GpYLVLDKW for STAT5a/b, and 5-carboxyfluorescein- […]
mM Tris (pH 8.0), 50 mM NaCl, 1 mM EDTA, 1 mM DTT, 0.1 % Nonidet P-40 substitute, 2 %
DMSO. Proteins and test compound were incubated for 1 h at room temperature before the […]
(1 picture or pasted object on this page, not shown here) […]
fluorescent-labeled peptide was added. Samples were transferred to 384-well microtiter plates and fluorescence polarization was read after an additional 60 min of incubation time.
Experiments were carried out in triplicate. Percent binding was calculated based on a logarithmic curve fit using OriginPro 8G software. Conversion of IC50 values to Ki-values was achieved using the published equation[2] embedded in the corresponding Excel spread sheet […]
https://websites.umich.edu/~shaomengwanglab/software/calc_ki/ind ex.html.
(§2) Error bars represent standard deviations. […]
(§3) Experiments were carried out in triplicate. […]

Assay [2] deals with T2, STAT1 (Homo sapiens, UniProt P42224).
T2 sequence (P42224 1-750): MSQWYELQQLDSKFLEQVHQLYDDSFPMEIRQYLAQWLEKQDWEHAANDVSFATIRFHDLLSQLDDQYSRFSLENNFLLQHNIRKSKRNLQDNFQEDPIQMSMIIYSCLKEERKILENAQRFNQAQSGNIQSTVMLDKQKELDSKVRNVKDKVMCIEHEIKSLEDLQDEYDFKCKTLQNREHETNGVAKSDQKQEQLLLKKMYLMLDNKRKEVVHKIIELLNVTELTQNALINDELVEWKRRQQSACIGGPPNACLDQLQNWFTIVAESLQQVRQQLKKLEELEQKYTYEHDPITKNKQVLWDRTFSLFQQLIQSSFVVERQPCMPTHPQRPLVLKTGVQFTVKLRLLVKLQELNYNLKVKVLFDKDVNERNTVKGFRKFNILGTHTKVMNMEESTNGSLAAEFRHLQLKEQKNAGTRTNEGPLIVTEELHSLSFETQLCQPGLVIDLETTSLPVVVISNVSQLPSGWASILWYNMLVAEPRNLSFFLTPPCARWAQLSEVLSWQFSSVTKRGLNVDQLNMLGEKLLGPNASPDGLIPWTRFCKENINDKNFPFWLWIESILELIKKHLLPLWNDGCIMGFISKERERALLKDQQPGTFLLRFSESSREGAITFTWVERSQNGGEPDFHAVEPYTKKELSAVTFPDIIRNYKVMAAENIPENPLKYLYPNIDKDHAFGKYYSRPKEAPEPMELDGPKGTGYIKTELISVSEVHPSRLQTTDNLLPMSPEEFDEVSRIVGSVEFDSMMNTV
As to conditions: FP assay; data taken from the literature, ref [1] of the Supporting Information; cited from earlier work.

The target in assay [3] is T2, STAT1. The experiment in a line: Competitive fluorescence polarization (FP) assay, STAT1. Type of assay: binding. How it is done: as §1
(§4) STAT4; 5-carboxyfluorescein-GpYDKPHVL for STAT1; 5-carboxyfluorescein-GpYLPQTV- […]
(§5) fluorescent-labeled peptide was added. Samples were transferred to 384-well microtiter plates […]
(§6) Experiments were carried out in triplicate. Percent binding was calculated based on a logarithmic curve fit using OriginPro 8G software. Conversion of IC50 values to Ki-values was […]
as §2, §3
On the technique in general: Polarisation of emitted light reports the rotation of a fluorescent probe.

For another assay, the target named is T3, STAT5b (Homo sapiens, UniProt P51692).
T3 sequence (P51692 1-787): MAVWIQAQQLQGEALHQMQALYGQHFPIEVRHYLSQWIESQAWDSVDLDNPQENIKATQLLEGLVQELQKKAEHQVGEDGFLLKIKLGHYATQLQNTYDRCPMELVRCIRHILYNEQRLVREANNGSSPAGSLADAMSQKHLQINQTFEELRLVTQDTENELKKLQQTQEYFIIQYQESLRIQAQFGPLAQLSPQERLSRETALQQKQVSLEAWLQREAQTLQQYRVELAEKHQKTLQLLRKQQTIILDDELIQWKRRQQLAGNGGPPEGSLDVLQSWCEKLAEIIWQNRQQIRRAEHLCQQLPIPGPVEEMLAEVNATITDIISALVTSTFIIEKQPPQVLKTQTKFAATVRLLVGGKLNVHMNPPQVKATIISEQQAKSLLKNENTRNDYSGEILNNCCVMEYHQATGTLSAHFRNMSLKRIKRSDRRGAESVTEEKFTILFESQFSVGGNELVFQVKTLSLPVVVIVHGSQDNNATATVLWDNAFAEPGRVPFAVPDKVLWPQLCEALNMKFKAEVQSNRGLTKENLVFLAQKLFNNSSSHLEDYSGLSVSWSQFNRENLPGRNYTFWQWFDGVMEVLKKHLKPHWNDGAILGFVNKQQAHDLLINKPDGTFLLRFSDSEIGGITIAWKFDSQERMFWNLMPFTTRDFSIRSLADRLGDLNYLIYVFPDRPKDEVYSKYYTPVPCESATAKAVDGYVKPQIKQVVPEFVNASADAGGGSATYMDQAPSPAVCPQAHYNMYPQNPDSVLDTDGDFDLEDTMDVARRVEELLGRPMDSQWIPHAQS
Kind of assay: Competitive fluorescence polarization (FP) assay, STAT5b. The class given is binding. On the procedure:
as §1, §4, §5, §6, §2, §3

In another assay the target is T4, STAT6 (Homo sapiens, UniProt P42226).
T4 sequence (P42226 1-847): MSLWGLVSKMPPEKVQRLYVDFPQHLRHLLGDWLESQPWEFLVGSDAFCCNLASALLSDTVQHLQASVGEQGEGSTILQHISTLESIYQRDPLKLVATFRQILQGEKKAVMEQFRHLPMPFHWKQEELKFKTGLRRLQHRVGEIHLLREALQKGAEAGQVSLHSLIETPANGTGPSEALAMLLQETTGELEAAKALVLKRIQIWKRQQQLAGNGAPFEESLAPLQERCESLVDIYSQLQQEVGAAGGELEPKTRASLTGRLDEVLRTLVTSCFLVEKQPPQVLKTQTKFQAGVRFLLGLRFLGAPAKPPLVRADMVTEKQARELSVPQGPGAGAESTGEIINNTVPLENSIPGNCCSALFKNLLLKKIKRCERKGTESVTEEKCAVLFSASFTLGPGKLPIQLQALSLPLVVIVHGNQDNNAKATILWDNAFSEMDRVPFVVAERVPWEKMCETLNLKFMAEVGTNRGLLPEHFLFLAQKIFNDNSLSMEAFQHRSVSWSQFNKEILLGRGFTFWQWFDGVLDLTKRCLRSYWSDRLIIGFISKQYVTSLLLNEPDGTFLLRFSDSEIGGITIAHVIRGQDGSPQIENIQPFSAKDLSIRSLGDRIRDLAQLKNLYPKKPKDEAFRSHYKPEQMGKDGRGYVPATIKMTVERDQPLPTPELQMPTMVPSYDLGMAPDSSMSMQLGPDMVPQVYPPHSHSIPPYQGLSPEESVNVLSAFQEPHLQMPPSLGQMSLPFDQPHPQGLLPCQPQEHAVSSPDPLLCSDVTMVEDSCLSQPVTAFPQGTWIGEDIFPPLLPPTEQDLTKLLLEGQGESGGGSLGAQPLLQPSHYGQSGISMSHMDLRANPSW
Kind of assay: Competitive fluorescence polarization (FP) assay, STAT6. Type of assay: binding. How it is done:
as §1, §4, §5, §6, §2, §3

The target of the next assay is T5, STAT5a (Homo sapiens, UniProt P42229).
T5 sequence (P42229 1-794): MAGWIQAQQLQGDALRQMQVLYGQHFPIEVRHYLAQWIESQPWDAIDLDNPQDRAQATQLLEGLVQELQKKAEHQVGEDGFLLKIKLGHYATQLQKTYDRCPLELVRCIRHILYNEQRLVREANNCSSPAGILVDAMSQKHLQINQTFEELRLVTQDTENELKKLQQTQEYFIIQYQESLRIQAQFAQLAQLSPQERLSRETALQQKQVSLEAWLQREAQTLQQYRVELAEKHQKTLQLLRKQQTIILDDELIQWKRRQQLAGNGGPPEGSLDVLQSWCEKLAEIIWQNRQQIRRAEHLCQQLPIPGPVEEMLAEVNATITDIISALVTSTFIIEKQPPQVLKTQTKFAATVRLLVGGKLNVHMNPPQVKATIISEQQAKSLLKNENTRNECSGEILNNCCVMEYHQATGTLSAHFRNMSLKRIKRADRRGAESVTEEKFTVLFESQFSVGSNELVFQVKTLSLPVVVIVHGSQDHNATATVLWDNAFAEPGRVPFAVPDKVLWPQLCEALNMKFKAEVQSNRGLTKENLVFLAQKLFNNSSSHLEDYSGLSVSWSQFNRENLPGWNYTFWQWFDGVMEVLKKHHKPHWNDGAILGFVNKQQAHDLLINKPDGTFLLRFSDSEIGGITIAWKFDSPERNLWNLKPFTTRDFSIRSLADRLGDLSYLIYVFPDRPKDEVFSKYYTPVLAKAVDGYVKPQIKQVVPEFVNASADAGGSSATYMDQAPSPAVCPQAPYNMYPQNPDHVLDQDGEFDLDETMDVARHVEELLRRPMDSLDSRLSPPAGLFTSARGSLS
Kind of assay: Competitive fluorescence polarization (FP) assay, STAT5a. The class given is binding. How it is done:
as §1, §4, §5, §6, §2, §3

Assay [4] deals with T1, STAT4 SH2 domain. The following applies: FP assay; data taken from the literature, ref [1] of the Supporting Information; cited from earlier work.
The mark [5] stands for this setting: Ki calculated from IC50, mean ± SD, n = 3.

As to `O=P(O)(O)Oc1ccc(-c2ccsc2)cc1F` [8d], on STAT4 SH2 domain [1], the IC50 is 0.52 µM and the Ki is 0.26 ± 0.02 µM.
For the compound `O=P(O)(O)Oc1ccc(-c2cccs2)cc1F` [8e], at STAT4 SH2 domain [1], the IC50 was 0.6 µM and the Ki was 0.3 ± 0.003 µM.
As to `O=P(O)(O)Oc1ccc(-c2ccccc2)cc1` [compound 1, p‐biphenyl phosphate], at STAT1 [2], the IC50 was 16.4 µM.
For the compound `O=P(O)(O)Oc1ccc(-c2cccc3ccccc23)cc1` [compound 10], the IC50 on STAT1 [3] (80-92 nM STAT1, 10 nM tracer peptide) was found to be 38 µM; at STAT5b (59-85 nM STAT5b, 10 nM tracer peptide) it was 89 µM; at STAT6 (106 nM STAT6, 10 nM tracer peptide), 19.1 µM; on STAT5a (125-177 nM STAT5a, 10 nM tracer peptide) it was 8.1 µM. Also, the Ki on STAT1 [3] (setting [5]) was 17 ± 1 µM; at STAT5b (setting [5]), 43 ± 4 µM; at STAT6 (setting [5]), 9.4 ± 1.9 µM; at STAT5a (setting [5]), 4 ± 0.3 µM.
With `O=P(O)(O)Oc1ccc(-c2ccccc2)cc1F` [compound 13], the figures for the IC50 on STAT4 SH2 domain [4] and at STAT1 [2] were 1.21 µM and 12.8 µM, respectively.

(Values after publication PMC12597212, “Biaryl Phosphate‐Based Inhibitors of the Transcription Factor STAT4” (Chemmedchem, 2025).)
